This is an account of results in PubChem BioAssay (NCI).

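Where inhibition never reached the appropriate level, the endpoint shown equals the highest concentration tested. Otherwise, values were interpolated linearly from a five-concentration, 48-hour dose response in 96-well plates. GI50 = concentration required for 50% inhibition of growth. The concentration for full growth arrest is given as TGI.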 A value given as a limit tells only on which side of the number the result lay.

Assay in all cases: NCI tumour cell line growth inhibition, 48 h
For assay [1], the system named is IGROV1 ovarian.
Assay [2] relates to NCI-H460 lung.
The subject of assay [3] is OVCAR-5 ovarian.
Assay [4] has as its system U251 CNS.
The test system of assay [5] is NCI-H23 lung.
Assay [6] deals with MALME-3M melanoma.
The test system of assay [7] is UACC-62 melanoma.
In assay [8] the test system is SK-MEL-28 melanoma.
Assay [9] has as its system SNB-19 CNS.
Assay [10] relates to SF-268 CNS.

Turning to `Cn1c(=O)c(Cc2ccccc2F)cc2cnc(NC3CCOCC3)nc21`, the GI50 in [1], in [2], in assay [3], in assay [4], in assay [5] and in assay [6] was above 25 µM each time. The GI50 in assay [7], in assay [8], in assay [9] and in assay [10] was above 25 µM in each case. Further, the TGI in assay [1], in [2], in assay [3], in assay [4], in [5] and in assay [6] was above 25 µM in each case. For the same compound, the TGI in [7], in [8], in assay [9] and in assay [10] was above 25 µM each time.
On to `CC/C=C\C[C@H]1C/C=C2/C(=O)C=C[C@@H]2C/C=C\CCCC(=O)O1`, for which the GI50 in [1] is 1.69 µM; in assay [2], 2.16 µM; in assay [3], 0.567 µM; in [4] it was 0.779 µM; in assay [5] it was 1.89 µM; in assay [6], 1.92 µM. For the same compound, the GI50 was 0.573 µM in assay [7], 0.791 µM in assay [8], 2.09 µM in [9] and 2.16 µM in [10]. For the same compound, the TGI in assay [1] is 4.28 µM; in assay [2], 8.86 µM; in assay [3] it was 2.53 µM; in assay [4], 2.49 µM; in assay [5] it was 5.03 µM; in [6], 4.86 µM. Also, the TGI in assay [7] is 2.37 µM; in assay [8], 3.07 µM; in [9], 11.7 µM; in [10], 9.49 µM.
As to `N#Cc1cccnc1Cl`, the TGI in [1], in assay [2], in [3], in [4], in [5] and in assay [6] was above 100 µM in each case. Also, the TGI in assay [7], in [8], in assay [9] and in assay [10] was above 100 µM in each case.
As to `O=C(NCO)NCOCn1c(=O)n(CO)c(=O)n(CO)c1=O`, the TGI in [1] is above 100 µM; in assay [2], above 94.8 µM; in [3] it was above 100 µM; in [4], above 100 µM; in [5], 36.3 µM; in assay [6], above 74 µM. Further, the TGI in [7] is 36.8 µM; in assay [8] it was 45.1 µM; in assay [9] it was above 31.6 µM; in assay [10], above 80.8 µM.
In the case of `Clc1ccc2c(c1)-c1c3c(nn1-c1ccccc1)-c1ccccc1SC3O2` (configuration not stated), the TGI in [1], in [2], in assay [3], in assay [4], in assay [5] and in assay [6] was above 100 µM throughout. In addition, the TGI in assay [8] and in assay [10] was above 100 µM each time.
In the case of `COc1cc(NC(C)CCCN)c2nccc(C)c2c1` (configuration not stated), the TGI in assay [1] was 44.6 µM; in assay [2], 54.7 µM; in [3], above 100 µM; in [4] it was 56.8 µM; in [5] it was above 100 µM; in assay [6], 35.6 µM. In addition, the TGI in assay [7] was 35.8 µM; in assay [8], 35.3 µM; in assay [9], above 100 µM; in assay [10], above 100 µM.
With `O=C(O)C1C(Br)(c2ccccc2)C1(Br)c1ccccc1` (configuration not stated), the TGI in [1], in assay [2], in assay [3], in [4], in assay [5] and in assay [6] was above 100 µM in each case. Moreover, the TGI in assay [7] is 64.3 µM; in [8], 52.6 µM; in [9] it was above 100 µM; in assay [10], 69.7 µM.
As to `O=C1CSC(c2ccc(Cl)cc2Cl)N1c1ccc(F)cc1` (configuration not stated), the GI50 was 16.1 µM in assay [1]; 16 µM in assay [2]; 16 µM in assay [3]; 17.8 µM in assay [4]; 16.6 µM in assay [5]; 20.4 µM in [6]. The GI50 was 16.2 µM in assay [7] and 16.9 µM in [10]. The TGI was 33.1 µM in assay [1]; 29.9 µM in [2]; 29.5 µM in assay [3]; 31.7 µM in assay [4]; 31.2 µM in [5]; 35.5 µM in assay [6]. Moreover, the TGI in assay [7] was determined as 30.5 µM; in [10] it was 32.2 µM.
With `c1ccc(C2Nc3ccccc3C3OCCCC23)cc1` (configuration not stated), the TGI in [1] is 70.2 µM; in assay [3], above 100 µM; in assay [4], 38.3 µM; in assay [5], above 100 µM; in assay [6], above 100 µM; in assay [7], 58.5 µM. Moreover, the TGI in [9] and in assay [10] was above 100 µM in each case.
As for `C1C[OH+]CC[OH+]CC[OH+]CC[OH+]CC[OH+]1.[Cl-].[V]`, the GI50 in assay [1] is 42.7 µM; in assay [2], 46.2 µM; in assay [4], 50.4 µM; in assay [5] it was 76.9 µM; in assay [6], 13.4 µM; in assay [7], 31.5 µM. The GI50 is 25.1 µM in assay [8], 43.5 µM in [9] and 73.2 µM in [10]. Besides, the TGI in assay [1] was above 100 µM; in [2], above 100 µM; in assay [4], above 100 µM; in [5] it was above 100 µM; in assay [6], 32 µM; in [7], above 100 µM. In addition, the TGI in assay [8], in assay [9] and in [10] was above 100 µM throughout.
Take `Nc1ccn(C2CCC(CO)O2)c(=O)n1` (configuration not stated): the GI50 in assay [1], in assay [3], in [4], in [5], in assay [6] and in [7] was above 1000 µM each time. Moreover, the GI50 in [9] and in assay [10] was above 1000 µM in each case. The TGI in assay [1], in assay [3], in [4], in [5], in assay [6] and in [7] was above 1000 µM throughout. In addition, the TGI in assay [9] and in [10] was above 1000 µM throughout.
For the compound `CC(=O)C(=CN1CCN(C(=O)c2ccco2)C1=S)C(C)=O`, the GI50 in [1] is 3.64 µM; in [2] it was 1.5 µM; in assay [4], 4.84 µM; in assay [5], 16.4 µM; in [6], 20.7 µM; in [7], 5.52 µM. Further, the GI50 in assay [8] is 3.94 µM; in [9], 30.1 µM; in [10] it was 2.57 µM. The TGI in [1] came to 17.3 µM; in assay [2] it was 3.42 µM; in assay [4] it was 23.6 µM; in assay [5] it was 31.6 µM; in assay [6], 47.9 µM; in [7], 19.1 µM. The values for the TGI in assay [8], in assay [9] and in assay [10] were 25.8 µM, 63.6 µM and 6.72 µM, respectively.
For `O=C1OC2CCCC[C@@H]2C2C[C@]34CCCCC3[C@@H](C(=O)O4)C12` (some centres not stated), the TGI in [2], in assay [3], in assay [4], in [5], in assay [6] and in [7] was above 100 µM in each case. Further, the TGI in assay [8], in [9] and in [10] was above 100 µM each time.
On to `C/C(CC(=O)NCCc1ccccc1)=N\NC(=O)C[n+]1ccccc1`, for which the TGI in assay [1], in assay [2], in assay [3], in assay [4], in assay [5] and in [6] was above 100 µM each time. Moreover, the TGI in assay [7], in assay [8] and in assay [10] was above 100 µM each time.
As for `CCN(CC)c1ccc(N=Nc2ccc(-c3nc4ccc[n+](C)c4s3)cc2)cc1`, the TGI in assay [1] came to 46.2 µM; in assay [2], 21.5 µM; in assay [3], 31.1 µM; in [4], 27.1 µM; in [5] it was 24.9 µM; in assay [6] it was 26.3 µM. Moreover, the TGI in assay [7] was found to be 26.6 µM; in assay [9], 25.1 µM; in assay [10], 48.9 µM.
For the compound `CN(C)CCN1C(=O)c2ccc3c4c(ccc(c24)C1=O)C(=O)N(CCN=C=S)C3=O`, the GI50 in assay [1] was 0.051 µM; in assay [3] it was 0.153 µM; in assay [4], 0.0347 µM; in assay [5], 0.162 µM; in assay [6] it was 0.0747 µM; in assay [7], 0.071 µM. Besides, the GI50 in [8] was 0.0839 µM; in [9], 0.0954 µM; in assay [10] it was 0.0466 µM. The TGI in assay [1] stood at 0.236 µM; in [3] it was 0.815 µM; in assay [4], 0.153 µM; in assay [5], 0.417 µM; in assay [6], 0.224 µM; in assay [7] it was 0.211 µM. The TGI in [8] turned out to be 0.209 µM; in [9], 0.596 µM; in [10] it was 0.29 µM.
Regarding `Cc1ncc(CCCN(C)C)cc1Nc1ncc2c(n1)-c1ccc(C(F)(F)F)cc1NC(=S)C2`, the GI50 was 0.43 µM in [1]; below 0.0178 µM in [2]; below 0.0237 µM in [3]; below 0.0194 µM in assay [4]; below 0.0138 µM in assay [5]; 0.0312 µM in assay [6]. Also, the values for the GI50 in [7], in assay [9] and in [10] were 0.0313 µM, 0.0713 µM and below 0.0195 µM, respectively. Also, the TGI in assay [1] was 1.35 µM; in [2] it was 11.9 µM; in assay [3] it was above 51.1 µM; in assay [4], 14 µM; in assay [5] it was 17.1 µM; in assay [6], 23.6 µM. Besides, the TGI in assay [7] was 17.9 µM; in [9], 68.9 µM; in assay [10], 13.8 µM.
For `CCCCCCCCCCCC(=O)OCC1OC(OC)C(NC(=O)N(CCCl)N=O)C(O)C1O` (configuration not stated), the TGI in assay [1] was above 100 µM; in assay [2] it was 20.5 µM; in [3], 57.7 µM; in [4], 26.1 µM; in assay [6] it was 30.6 µM; in assay [7], 15.7 µM. The TGI in assay [8] is 35.6 µM; in assay [9], above 100 µM; in assay [10] it was 16.4 µM.
With `Cc1[nH]c2ccccc2c(=O)c1CC=C(Cl)Cl`, the GI50 in assay [1] was 64.2 µM; in assay [2], 72.5 µM; in assay [3], above 100 µM; in assay [5], 50.6 µM; in assay [6], above 100 µM; in assay [7], 34.5 µM. Besides, the results for the GI50 in assay [8], in [9] and in assay [10] were 52.9 µM, 25.7 µM and 31.2 µM, respectively. In addition, the TGI in [1], in assay [2], in assay [3], in [5], in [6] and in assay [7] was above 100 µM each time. In addition, the TGI in assay [8], in assay [9] and in assay [10] was above 100 µM throughout.
As to `CC(C)(C[C@H]1CN(S(=O)(=O)c2cccc(C(F)(F)F)c2)c2cc(-c3cc(F)cc(OC(F)F)c3)ccc2O1)C(=O)O`, the GI50 was 9.43 µM in [1]; 4.1 µM in assay [2]; 12.6 µM in assay [3]; 4.51 µM in [4]; 9.4 µM in assay [5]; 10.2 µM in assay [6]. Also, the GI50 was 10.9 µM in assay [8], 5.92 µM in [9] and 10.3 µM in [10]. In addition, the TGI in assay [1] was 27.6 µM; in [2], 16.3 µM; in assay [3] it was 25.9 µM; in assay [4], 17.1 µM; in [5] it was 26.3 µM; in [6], 25.1 µM. Also, the figures for the TGI in [8], in assay [9] and in assay [10] were 24.4 µM, 20.7 µM and 24.7 µM, respectively.
